For assay [1], the target named is T1, human mu opioid receptor (Homo sapiens, UniProt P35372).
T1 construct: purchased Perkin Elmer RBHOMM400UA; host or cells: Chinese Hamster Ovary cells (recombinant expression)
In words: Human Mu Opioid Receptor Binding Assay (CHO membranes, 3H-Damgo). The settings on record: read-out: hKi μ. The protocol:
Membranes from Chinese Hamster Ovary cells expressing the human […] opioid receptor (Perkin Elmer #RBHOMM400UA) are homogenized in assay buffer (50 mM Tris, pH 7.5 with 5 mM MgCl2) using a glass tissue grinder, Teflon pestle and a Steadfast Stirrer (Fisher Scientific). The concentration of membranes is adjusted to 300 μg/mL in assay buffer and 100 μL is dispensed into each well of the assay plate, a 96 well round bottom polypropylene plate. Compounds to be tested are solubilized in DMSO (Pierce), 10 mM, then diluted in assay buffer to 6× the desired final concentration. The ligand, ^3H-Damgo (Perkin Elmer #NET-902) is also diluted in assay buffer to 3.6 nM. In a second 96 well round bottom polypropylene plate, known as the premix plate, 60 μL of the 6× compound is combined with 60 μL of 3.6 nM ^3H-Damgo. From this premix plate 50 μL is transferred to the assay plate containing the membranes, in duplicate. The assay plate is incubated for 2 h at room temperature. A GF/C 96 well filter plate (Perkin Elmer #6005174) is pretreated with 0.3% polyethylenimine for 30 min. The contents of the assay plate are filtered through the filter plate using a Packard Filtermate Harvester, and washed 3 times with 0.9% saline that is 4° C. The filter plate is dried, the underside sealed, and 30 μL Microscint20 (Packard #6013621) added to each well. A Topcount-NXT Microplate Scintillation Counter (Packard) is used to measure emitted energies in the range of 2.9 to 35 KeV. […] Nonspecific binding is determined in the presence of 1 μM unlabelled Damgo (Tocris #1171).

Assay [2] addresses T2, human delta subtype 2 opioid receptor (Homo sapiens, UniProt P41143).
T2 construct: purchased Perkin Elmer RBHODM400UA; host or cells: Chinese Hamster Ovary cells (recombinant expression)
In words: Human Delta Opioid Receptor Binding Assay (CHO membranes, 3H-Naltrindole). The settings on record: read-out: hKi δ. Here is the method: This assay is designed to test the ability of a compound to interfere with the binding of tritiated Naltrindole to the human delta subtype 2 opioid receptor. Membranes from Chinese Hamster Ovary cells expressing the human delta subtype 2 opioid receptor (Perkin Elmer #RBHODM400UA) are homogenized in assay buffer (50 mM Tris, pH 7.5 with 5 mM MgCl2) using a glass tissue grinder, Teflon pestle and a Steadfast Stirrer (Fisher Scientific). The concentration of membranes is adjusted to 100 μg/mL in assay buffer and 100 μL is dispensed into each well of the assay plate, a 96 well round bottom polypropylene plate. Compounds to be tested are solubilized in DMSO (Pierce), 10 mM, then diluted in assay buffer to 6× the desired final concentration. The ligand, ^3H-Naltrindole (Perkin Elmer #NET-1065) is also diluted in assay buffer to 6 nM. In a second 96 well round bottom polypropylene plate, known as the premix plate, 60 μL of the 6× compound is combined with 60 μL of 6 nM ^3H-Naltrindole. From this premix plate 50 μL is transferred to the assay plate containing the membranes, in duplicate. The assay plate is incubated for 30 min at room temperature. A GF/C 96 well filter plate (Perkin Elmer #6005174) is pretreated with 0.3% polyethylenimine for 30 min. The contents of the assay plate are filtered through the filter plate using a Packard Filtermate Harvester, and washed 3 times with 0.9% saline that is 4° C. The filter plate is dried, the underside sealed, and 30 μL Microscint20 (Packard #6013621) added to each well. A Topcount-NXT Microplate Scintillation Counter (Packard) is used to measure emitted energies in the range of 2.9 to 35 KeV. Results are compared to maximum binding, wells receiving no inhibitors. Nonspecific binding is determined in the presence of 1 μM unlabelled Naltrindole (Sigma #N115).

Each structure is given as a SMILES string.

T2 sequence (P41143 whole entry): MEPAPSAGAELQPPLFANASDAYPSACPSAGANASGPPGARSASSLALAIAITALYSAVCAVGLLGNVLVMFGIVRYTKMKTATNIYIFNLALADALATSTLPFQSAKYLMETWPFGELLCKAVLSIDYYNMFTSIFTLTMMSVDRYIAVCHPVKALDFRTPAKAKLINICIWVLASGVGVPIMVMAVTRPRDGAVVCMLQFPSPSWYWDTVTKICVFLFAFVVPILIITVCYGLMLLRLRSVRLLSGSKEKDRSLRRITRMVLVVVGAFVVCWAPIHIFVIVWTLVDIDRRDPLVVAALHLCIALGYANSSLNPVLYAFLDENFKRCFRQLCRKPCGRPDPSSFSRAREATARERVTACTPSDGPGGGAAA
T1 sequence (P35372 whole entry): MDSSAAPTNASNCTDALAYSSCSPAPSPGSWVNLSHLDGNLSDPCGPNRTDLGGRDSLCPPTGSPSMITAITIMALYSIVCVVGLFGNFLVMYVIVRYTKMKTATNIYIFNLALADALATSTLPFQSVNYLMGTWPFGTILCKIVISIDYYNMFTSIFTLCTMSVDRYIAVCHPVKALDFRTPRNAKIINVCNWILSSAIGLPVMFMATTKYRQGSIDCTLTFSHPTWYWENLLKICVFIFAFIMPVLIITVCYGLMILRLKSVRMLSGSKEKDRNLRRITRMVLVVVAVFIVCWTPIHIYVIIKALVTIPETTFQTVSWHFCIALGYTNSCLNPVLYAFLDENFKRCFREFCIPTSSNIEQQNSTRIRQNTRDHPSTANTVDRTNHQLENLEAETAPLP

With `CC(C)N(C(=O)[C@@H](N)Cc1cccc(C(N)=O)c1)[C@@H](Cc1ccccc1)c1nc(-c2ccccc2)c[nH]1` [Cpd 136], the figures for the Ki in assay [1] and in assay [2] were 726 nM and 1610 nM, respectively.

As for `Cc1cc(O)cc(C)c1C[C@H](N)C(=O)N(C(C)C)[C@H](CO)c1nc(-c2ccccc2)c[nH]1` [Cpd 63], the Ki came to 58 nM in assay [1] and 473 nM in assay [2].

On to `Cc1cc(O)cc(C)c1C[C@H](N)C(=O)N(Cc1cccc(Oc2ccccc2)c1)[C@@H](C)c1nc(-c2ccccc2)c[nH]1` [Cpd 98], for which the Ki came out at 48 nM in assay [1] and 54 nM in assay [2].

For the molecule `Cc1cc(O)cc(C)c1C[C@H](N)C(=O)N(Cc1nc(-c2ccc(-c3ccccc3)cc2)c(C)[nH]1)C(C)C` [Cpd 115], the Ki in assay [1] was 68 nM; in assay [2] it was 321 nM.

On to `Cc1cc(O)cc(C)c1C[C@H](N)C(=O)N(Cc1nc(-c2cccc(C(N)=O)c2)c(C)[nH]1)C(C)C` [Cpd 73], for which the Ki in assay [1] was 1.9 nM; in assay [2], 151 nM.

Take `Cc1cc(O)cc(C)c1C[C@H](N)C(=O)N(Cc1cccc(Br)c1)[C@@H](C)c1nc(-c2ccccc2)c[nH]1` [Cpd 101]: the figures for the Ki in assay [1] and in assay [2] were 24 nM and 47 nM, respectively.

With `Cc1cc(O)cc(C)c1C[C@H](N)C(=O)N(C(C)C)[C@@H](COCc1ccccc1)c1nc(-c2ccccc2)c[nH]1` [Cpd 138], the figures for the Ki in assay [1] and in assay [2] were 104 nM and 1180 nM, respectively.

Take `COC(=O)c1cccc(CN(C(=O)[C@@H](N)Cc2c(C)cc(O)cc2C)[C@@H](C)c2nc(-c3ccccc3)c[nH]2)c1` [Cpd 52]: the results for the Ki in assay [1] and in assay [2] were 12.1 nM and 66 nM, respectively.

Consider `Cc1cc(O)cc(C)c1C[C@H](N)C(=O)N(Cc1nc(-c2cccc3ccccc23)c(C)[nH]1)C(C)C` [Cpd 156], for which the Ki is 0.59 nM in assay [1] and 380 nM in assay [2].

Consider `CC(C)[C@@H](c1nc(-c2ccccc2)c[nH]1)N(C(=O)[C@@H](N)Cc1ccc(O)cc1)C(C)C` [Cpd 161], for which the Ki was over 1000 nM in assay [1] and over 10000 nM in assay [2].

Take `Cc1cc(O)cc(C)c1C[C@H](N)C(=O)N(Cc1nc(-c2ccc(F)cc2F)c(C)[nH]1)C(C)C` [Cpd 71]: the Ki in assay [1] is 0.57 nM; in assay [2], 102 nM.

Regarding `Cc1cc(C(N)=O)cc(C)c1C[C@H](N)C(=O)N(CCCc1ccccc1)[C@@H](C)c1nc(-c2ccccc2)c[nH]1` [Cpd 108], the results for the Ki in assay [1] and in assay [2] were 23.5 nM and 43.3 nM, respectively.

As to `Cc1cc(O)cc(C)c1C[C@H](N)C(=O)N(Cc1nc(-c2cccnc2)c(C)[nH]1)C(C)C` [Cpd 124], the results for the Ki in assay [1] and in assay [2] were 1.7 nM and 1280 nM, respectively.

Consider `Cc1cc(O)cc(C)c1C[C@H](N)C(=O)N(C(C)C)[C@H](C)c1nc(-c2ccc(F)cc2)c[nH]1` [Cpd 82], for which the Ki worked out at 2.39 nM in assay [1] and 46 nM in assay [2].

As for `Cc1cc(C(N)=O)cc(C)c1C[C@H](N)C(=O)N(CCc1ccccc1)[C@@H](C)c1nc(-c2ccccc2)c[nH]1` [Cpd 109], the Ki in assay [1] was determined as 8.2 nM; in assay [2], 77 nM.

On to `Cc1cc(O)cc(C)c1C[C@H](N)C(=O)N(C(C)C)[C@@H](Cc1cccc(CN)c1)c1nc(-c2ccccc2)c[nH]1` [Cpd 120], for which the Ki in assay [1] is 20.8 nM; in assay [2], 740 nM.

As for `Cc1cc(O)cc(C)c1C[C@H](N)C(=O)N(Cc1nc(-c2ccc(C(=O)O)cc2)c(C)[nH]1)C(C)C` [Cpd 123], the Ki in assay [1] worked out at 47 nM; in assay [2] it was 84 nM.

On to `CC(C)N(C(=O)[C@@H](N)Cc1cccc(C#N)c1)[C@@H](Cc1ccccc1)c1nc(-c2ccccc2)c[nH]1` [Cpd 157], for which the figures for the Ki in assay [1] and in assay [2] were 2.2 nM and over 10000 nM, respectively.

Regarding `Cc1cc(O)cc(C)c1C[C@H](N)C(=O)N(Cc1ccc2ccccc2c1)[C@@H](C)c1nc(-c2ccccc2)c[nH]1` [Cpd 100], the results for the Ki in assay [1] and in assay [2] were 20 nM and 88 nM, respectively.

In the case of `Cc1cc(O)cc(C)c1C[C@H](N)C(=O)N(Cc1nc(-c2cccc(S(C)(=O)=O)c2)c(C)[nH]1)C(C)C` [Cpd 72], the Ki in assay [1] was 1.03 nM; in assay [2], 71 nM.

`Cc1cc(O)cc(C)c1C[C@H](N)C(=O)N(CC1CCCCC1)[C@@H](C)c1nc(-c2ccccc2)c[nH]1` [Cpd 56]: the Ki in assay [1] was determined as 65.3 nM; in assay [2] it was 225 nM.

Consider `Cc1[nH]c(CN(C(=O)[C@@H](N)Cc2ccc(O)cc2)C(C)C)nc1-c1ccccc1` [Cpd 154], for which the values for the Ki in assay [1] and in assay [2] were 1 nM and over 10000 nM, respectively.

On to `Cc1cc(O)cc(C)c1C[C@H](N)C(=O)N(Cc1nc(Br)c(C)[nH]1)C(C)C` [Cpd 65], for which the Ki in assay [1] was 0.36 nM; in assay [2], 517 nM.

Regarding `Cc1cc(C(N)=O)cc(C)c1C[C@H](N)C(=O)N(Cc1nc(-c2ccccc2)c[nH]1)C(C)C` [Cpd 86], the Ki in assay [1] came out at 1 nM; in assay [2], 400 nM.

`Cc1cc(O)cc(C)c1C[C@H](N)C(=O)N(C(C)C)[C@@H](CC(C)C)c1nc(-c2ccccc2)c[nH]1` [Cpd 140]: the Ki in assay [1] came out at 79 nM; in assay [2], 985 nM.

As for `CC(=O)Oc1ccc(CN(C(=O)[C@@H](N)Cc2c(C)cc(O)cc2C)[C@@H](C)c2nc(-c3ccccc3)c[nH]2)cc1` [Cpd 88], the Ki was determined as 5.8 nM in assay [1] and 16.2 nM in assay [2].

Consider `Cc1cc(O)cc(C)c1C[C@H](N)C(=O)N(Cc1ccccc1)[C@@H](CC(C)C)c1nc(-c2ccccc2)c[nH]1` [Cpd 104], for which the Ki was found to be 100 nM in assay [1] and 484 nM in assay [2].

On to `Cc1cc(C(N)=O)cc(C)c1C[C@H](N)C(=O)N(CCc1ccccc1)[C@H](C)c1nc(-c2ccccc2)c[nH]1` [Cpd 110], for which the Ki was 191 nM in assay [1] and 1400 nM in assay [2].

`Cc1cc(O)cc(C)c1C[C@H](N)C(=O)N(Cc1cccc2ccccc12)[C@@H](C)c1nc(-c2ccccc2)c[nH]1` [Cpd 99]: the Ki in assay [1] turned out to be 16 nM; in assay [2] it was 19.3 nM.

For the molecule `Cc1cc(O)cc(C)c1C[C@H](N)C(=O)N(Cc1nc(-c2cccc(C#N)c2)c(C)[nH]1)C(C)C` [Cpd 60], the figures for the Ki in assay [1] and in assay [2] were 2 nM and 114 nM, respectively.

On to `Cc1cc(O)cc(C)c1C[C@H](N)C(=O)N(Cc1nc(-c2ccc(N(C)C)cc2)c(C)[nH]1)C(C)C` [Cpd 66], for which the results for the Ki in assay [1] and in assay [2] were 6.5 nM and 550 nM, respectively.

For the molecule `Cc1cc(O)cc(C)c1C[C@H](N)C(=O)N(Cc1nc(-c2cc(F)cc(F)c2)c(C)[nH]1)C(C)C` [Cpd 126], the results for the Ki in assay [1] and in assay [2] were 7.8 nM and 164 nM, respectively.

In the case of `Cc1cc(O)cc(C)c1C[C@H](N)C(=O)N(C(C)C)[C@H](c1nc(-c2ccccc2)c[nH]1)C(C)C` [Cpd 162], the Ki was found to be 7.6 nM in assay [1] and 173 nM in assay [2].

In the case of `COc1ccc(-c2nc(CN(C(=O)[C@@H](N)Cc3c(C)cc(O)cc3C)C(C)C)[nH]c2C)cc1` [Cpd 125], the Ki in assay [1] stood at 8.6 nM; in assay [2], 237 nM.

With `Cc1cc(C(N)=O)cc(C)c1C[C@H](N)C(=O)N(Cc1ccccc1)[C@@H](C)c1nc(-c2ccc(F)cc2)c[nH]1` [Cpd 76], the Ki in assay [1] turned out to be 1.6 nM; in assay [2], 43.1 nM.

Turning to `COc1ccccc1CN(C(=O)[C@@H](N)Cc1c(C)cc(O)cc1C)[C@@H](C)c1nc(-c2ccccc2)c[nH]1` [Cpd 96], the Ki in assay [1] came to 9.7 nM; in assay [2], 14.6 nM.

As to `Cc1cc(O)cc(C)c1C[C@H](N)C(=O)N(CC1CCN(C(=O)OCc2ccccc2)CC1)[C@@H](C)c1nc(-c2ccccc2)c[nH]1` [Cpd 53], the Ki in assay [1] was 13.1 nM; in assay [2], 96 nM.
